Assay results taken from US8741932B2, “Imidazopyridine derivatives” (Piramal Enterprises Limited, priority 2009, dated 2014).

Legend:
A549 = assay: Cytotoxicity assay (propidium iodide), A549; format: cell-based; conditions: A549 (C1a, lung), 48 hours
Experimental: (§1) Cells from cell lines as mentioned in the table given below were seeded at a density of 3000 cells/well in a white opaque 96-well plate. Following incubation at 37° C./5% CO2 for a period of 18-24 hours, the cells were treated with various concentrations (stock solution was prepared in DMSO and subsequent dilutions were made in media as per ATCC guidelines) of the representative compounds of present invention (refer table 3) for a period of 48 hours. At the end of treatment, the spent culture medium was discarded, the cells were washed with 1×PBS and 200 μl of 7 μg/ml propidium iodide was added to each well. The plates were frozen at −70° C. for at least 24 hours. For analysis, the plates were brought to RT, allowed to thaw and were read in PolarStar fluorimeter with the fluorescence setting. The percentage of viable cells in the non treated set of wells was considered to be 100 and the percentage viability following treatment was calculated accordingly. IC50 values were calculated from graphs plotted using these percentages.

H460 = assay: Cytotoxicity assay (propidium iodide), H460; format: cell-based; conditions: H460 (C1b, lung), 48 hours
IL-6 = assay: Human monocyte assay, LPS-stimulated IL-6; format: cell-based; conditions: human monocytes, 1 μg/ml LPS, 5 hours
Experimental: The assay was designed as in the reference, Physiol.
Peripheral blood mononuclear cells (hPBMC) were harvested from human blood and suspended in RPMI 1640 culture medium containing 10% FCS, 100 U/mL penicillin and […] streptomycin (assay medium). Monocytes in the hPBMCs were counted using a Coulter Counter following which the cells were resuspended at 2×10^5 monocytes/mL. A cell suspension containing 2×10^4 monocytes was aliquoted per well of a 96-well plate. Subsequently, the hPBMCs were incubated for 4-5 hours at 37° C., 5% CO2 (During the incubation, the monocytes adhered to the bottom of 96-well plastic culture plate). Following the incubation, the non-adherent lymphocytes were washed with assay medium and the adherent monocytes re-fed with assay medium. After a 48-hour incubation period (37° C., 5% CO2), monocytes were pretreated with various concentrations of representative compounds of present invention (refer to table 6 and 7) (prepared in DMSO) or vehicle (0.5% DMSO) for 30 minutes and stimulated with 1 μg/ml LPS (Escherchia coli 0111:B4, Sigma Chemical Co., St. Louis, Mo.). The incubation was continued for 5 hours at 37° C., 5% CO2. Supernatants were harvested, assayed for IL-6 and TNF-α by ELISA as described by the manufacturer (BD Biosciences, USA). Dexamethasone (10 μM) was used as standard for this assay. […] Biological results for both IL-6 and TNFα are indicated in Table 6 and Table 7 respectively.

A2780 = assay: Cytotoxicity assay (propidium iodide), A2780; format: cell-based; conditions: A2780 (C3a), 1 μM; for inhibition at 1 µM: Homo sapiens
PC3 = assay: Cytotoxicity assay (propidium iodide), PC3; conditions: for inhibition at 1 µM: Homo sapiens, PC-3, read-out: % inhibition at 1 μM; for % inhibition at 1 μM: PC3 (C2a)
Experimental: as §1

Cc1ccccc1S(=O)(=O)N(C)/N=C/c1cnc2ccc(-c3cccnc3)cn12 [Example 53, (E)-N, 2-dimethyl-N′-((6-(pyridin-3-yl)imidazo[1,2-a]pyridin-3-yl)methylene)benzenesulfonohydrazide]
IC50 (A549; Homo sapiens): 0.01 to 5 µM
IC50 (H460; Homo sapiens, NCI-H460): 0.01 to 5 µM
IC50 (IL-6; Monocyte): 0.001 to 5 µM

CN(/N=C/c1cnc2ccc(-c3cccnc3)cn12)S(=O)(=O)c1ccccc1OC(F)(F)F [Example 54, (E)-N-methyl-N′-((6-(pyridin-3-yl)imidazo[1,2-a]pyridin-3-yl)methylene)-2-(trifluoromethoxy)benzenesulfonohydrazide]
IC50 (A549; Homo sapiens): 0.01 to 5 µM
IC50 (H460; Homo sapiens, NCI-H460): 0.01 to 5 µM
IC50 (IL-6; Monocyte): 0.001 to 5 µM

CN(/N=C/c1cnc2ccc(-c3cccnc3)cn12)S(=O)(=O)c1cc(C(F)(F)F)ccc1Cl [Example 65, (E)-2-chloro-N-methyl-N′-((6-(pyridin-3-yl)imidazo[1,2-a]pyridin-3-yl)methylene)-5-(trifluoromethyl)benzenesulfonohydrazide]
IC50 (A549; Homo sapiens): 0.01 to 5 µM
IC50 (H460; Homo sapiens, NCI-H460): 0.01 to 5 µM
IC50 (IL-6; Monocyte): 0.001 to 5 µM

COc1ccc(F)cc1S(=O)(=O)N(C)/N=C/c1cnc2ccc(-c3cccnc3F)cn12 [Example 88, (E)-5-Fluoro-N′-((6-(2-fluoropyridin-3-yl)imidazo[1,2-a]pyridin-3-yl)methylene)-2-methoxy-N-methylbenzenesulfonohydrazide]
IC50 (A549; Homo sapiens): 0.01 to 5 µM
IC50 (H460; Homo sapiens, NCI-H460): 0.01 to 5 µM
IC50 (IL-6; Monocyte): 0.001 to 5 µM

COc1ccc(Br)cc1S(=O)(=O)N(C)/N=C/c1cnc2ccc(-c3cccnc3F)cn12 [Example 91, (E)-5-bromo-N′-((6-(2-fluoropyridin-3-yl)imidazo[1,2-a]pyridin-3-yl)methylene)-2-methoxy-N-methylbenzenesulfonohydrazide]
inhibition at 1 µM (A2780): > 50%
inhibition at 1 µM (PC3): > 50%

Cc1cccc(S(=O)(=O)N(C)/N=C/c2cnc3ccc(-c4cccnc4)c(C)n23)c1 [Example 127, (E)-N,3-dimethyl-N′-((5-methyl-6-(pyridin-3-yl)imidazo[1,2-a]pyridin-3-yl)methylene)benzenesulfonohydrazide]
IC50 (IL-6; Monocyte): ≥ 5 µM

Cc1ccc(-c2ccc3ncc(/C=N/N(C)S(=O)(=O)c4cc(F)ccc4C)n3c2)cn1 [Example 128, (E)-5-fluoro-N,2-dimethyl-N′-((6-(6-methylpyridin-3-yl)imidazo[1,2-a]pyridin-3-yl)methylene)benzenesulfonohydrazide]
IC50 (IL-6; Monocyte): 0.001 to 5 µM

Cc1ccc(-c2ccc3ncc(/C=N/N(C)S(=O)(=O)c4ccccc4OC(F)(F)F)n3c2)cn1 [Example 129, (E)-N-methyl-N′-((6-(6-methylpyridin-3-yl)imidazo[1,2-a]pyridin-3-yl)methylene)-2-(trifluoromethoxy)benzenesulfonohydrazide]
IC50 (IL-6; Monocyte): ≥ 5 µM

COc1ccc(F)cc1S(=O)(=O)N(C)/N=C/c1cnc2ccc(-c3ccc(C)nc3)cn12 [Example 130, (E)-5-Fluoro-2-methoxy-N-methyl-N′-((6-(6-methylpyridin-3-yl)imidazo[1,2-a]pyridin-3-yl)methylene)benzenesulfonohydrazide]
IC50 (IL-6; Monocyte): 0.001 to 5 µM

Cc1ccc(-c2ccc3ncc(/C=N/N(C)S(=O)(=O)c4ccccc4C)n3c2)cn1 [Example 131, (E)-N,2-dimethyl-N′-((6-(6-methylpyridin-3-yl)imidazo[1,2-a]pyridin-3-yl)methylene)benzenesulfonohydrazide]
IC50 (IL-6; Monocyte): ≥ 5 µM

Cc1ccc(F)cc1S(=O)(=O)N(C)/N=C/c1cnc2ccc(-c3cnc(F)c(C)c3)cn12 [Example 134, (E)-5-Fluoro-N′-((6-(6-fluoro-5-methylpyridin-3-yl)imidazo[1,2-a]pyridin-3-yl)methylene)-N,2-dimethylbenzenesulfonohydrazide]
IC50 (IL-6; Monocyte): 0.001 to 5 µM

Cc1ccc(F)cc1S(=O)(=O)N(C)/N=C/c1cnc2ccc(-c3ccc(Cl)nc3)cn12 [Example 135, (E)-N′-((6-(6-Chloropyridins-3-yl)imidazo[1,2-a]pyridin-3-yl)methylene)-5-fluoro-N,2-dimethylbenzenesulfonohydrazide]
IC50 (IL-6): 0.001 to 5 µM

COc1ccc(-c2ccc3ncc(/C=N/N(C)S(=O)(=O)c4cc(F)ccc4C)n3c2)cn1 [Example 137, (E)-5-fluoro-N′-((6-(6-methoxypyridin-3-yl)imidazo[1,2-a]pyridin-3-yl)methylene)-N,2-dimethylbenzenesulfonohydrazide]
IC50 (IL-6; Monocyte): ≥ 5 µM

COc1ncc(-c2ccc3ncc(/C=N/N(C)S(=O)(=O)c4cc(F)ccc4C)n3c2)cn1 [Example 138, (E)-5-Fluoro-N-((6-(2-methoxypyrimidin-5-yl)imidazo[1,2-a]pyridine-3-yl)methylene)-N, 2-dimethylbenzenesulfonohydrazide]
IC50 (IL-6): ≥ 5 µM

Cc1ccc(F)cc1S(=O)(=O)N(C)/N=C/c1cnc2ccc(-c3cncc(C(F)(F)F)c3)cn12 [Example 139, (E)-5-fluoro-N, 2-dimethyl-N′-((6-(5-(trifluoromethyl)pyridin-3-yl)imidazo[1,2-a]pyridin-3-yl)methylene) benzenesulfonohydrazide]
IC50 (IL-6; Monocyte): ≥ 5 µM

CN(/N=C/c1cnc2ccc(-c3cccnc3)cn12)C(=O)NCc1ccccc1 [Example 141, (E)-N-benzyl-1-methyl-2-((6-(pyridin-3-yl)imidazo[1,2-a]pyridin-3-yl)methylene)hydrazinecarboxamide]
IC50 (IL-6; Monocyte): 0.001 to 5 µM

Cc1ccc(NC(=O)N(C)/N=C/c2cnc3ccc(-c4cccnc4)cn23)cc1 [Example 142, (E)-1-methyl-2-((6-(pyridin-3-yl)imidazo[1,2-a]pyridin-3-yl)methylene)-N-p-tolylhydrazinecarboxamide]
inhibition at 1 µM (A2780): 30 to 50%
IC50 (IL-6; Monocyte): ≥ 5 µM
inhibition at 1 µM (PC3): 30 to 50%

Cc1ccc(F)c(NC(=O)N(C)/N=C/c2cnc3ccc(-c4cccnc4)cn23)c1 [Example 143, (E)-N-(2-fluoro-5-methylphenyl)-1-methyl-2-((6-(pyridin-3-yl)imidazo[1,2-a]pyridin-3-yl)methylene)hydrazinecarboxamide]
inhibition at 1 µM (A2780): 30 to 50%
IC50 (IL-6; Monocyte): 0.001 to 5 µM
inhibition at 1 µM (PC3): 30 to 50%

Cc1ccc(F)cc1NC(=O)N(C)/N=C/c1cnc2ccc(-c3cccnc3)cn12 [Example 144, (E)-N-(5-fluoro-2-methylphenyl)-1-methyl-2-((6-(pyridin-3-yl)imidazo[1,2-a]pyridin-3-yl)methylene)hydrazinecarboxamide]
inhibition at 1 µM (A2780): 30 to 50%
IC50 (IL-6; Monocyte): ≥ 5 µM
inhibition at 1 µM (PC3): 30 to 50%

CN(N=Cc1cnc2ccc(Br)cn12)C(=O)NCc1ccccc1 [Example 145, N-benzyl-2-((6-bromoimidazo[1,2-a]pyridin-3-yl)methylene)-1-methylhydrazinecarboxamide]
IC50 (IL-6; Monocyte): 0.001 to 5 µM

Cc1ccc(F)c(NC(=O)N(C)N=Cc2cnc3ccc(Br)cn23)c1 [Example 146]
% inhibition at 1 μM (A2780): ++ (% Inhibition >50%)
IC50 (IL-6): ≥ 5 µM
% inhibition at 1 μM (PC3): ++ (% Inhibition >50%)

CN(/N=C/c1cnc2ccc(-c3cccnc3)cn12)C(=S)NCCN1CCOCC1 [Example 148]
IC50 (IL-6): ≥ 5 µM

CN(/N=C/c1cnc2ccc(-c3cccnc3)cn12)C(=S)Nc1ccc(C#N)cc1 [Example 149, (E)-N-(4-cyanophenyl)-1-methyl-2-((6-(pyridin-3-yl)imidazo[1,2-a]pyridin-3-yl)methylene)hydrazinecarbothioamide]
inhibition at 1 µM (A2780): 30 to 50%
IC50 (IL-6; Monocyte): ≥ 5 µM
inhibition at 1 µM (PC3): 30 to 50%

COc1ccc(NC(=S)N(C)/N=C/c2cnc3ccc(-c4cccnc4)cn23)cc1 [Example 150, (E)-N-(4-methoxyphenyl)-1-methyl-2-((6-(pyridin-3-yl)imidazo[1,2-a]pyridin-3-yl)methylene)hydrazinecarbothioamide]
inhibition at 1 µM (A2780): 30 to 50%
IC50 (IL-6; Monocyte): ≥ 5 µM
inhibition at 1 µM (PC3): 30 to 50%

CN(N=Cc1cnc2ccc(Br)cn12)C(=S)NCCN1CCOCC1 [Example 151, 2-((6-bromoimidazo[1,2-a]pyridin-3-yl)methylene)-1-methyl-N-(2-morpholinoethyl) hydrazinecarbothioamide]
IC50 (IL-6): 0.001 to 5 µM

CN(N=Cc1cnc2ccc(Br)cn12)C(=S)Nc1ccc(C(F)(F)F)cc1 [Example 152, 2-((6-bromoimidazo[1,2-a]pyridin-3-yl)methylene)-1-methyl-N-(4-(trifluoromethyl)phenyl) hydrazinecarbothioamide]
% inhibition at 1 μM (A2780): + (50% ≧ % Inhibition ≧ 30%)
IC50 (IL-6): 0.001 to 5 µM
% inhibition at 1 μM (PC3): + (50% ≧ % Inhibition ≧ 30%)

(E)-5-fluoro-N′-((6-(5-fluoropyridin-3-yl) imidazo[1,2-a]pyridin-3-yl)methylene)-N, 2-dimethylbenzenesulfonohydrazide [Example 132]
IC50 (A549): 0.01 to 5 µM
IC50 (H460): 0.01 to 5 µM
